# Tests used:
# [1] = tested on: human lung cancer NCI-H1703 xenograft tumor; assay: In vivo pharmacodynamic study, NCI-H1703 subcutaneous xenograft tumor model; design: species or system female BALB/c nude mice; details: for Tumor volume (Day 0): Day 0, Mean ± SEM; for Tumor volume (Day 0) / Tumor volume (Day 21) / Tumor weight (Day 21): n = 9; for RTV (Day 21) / T/C (%) (Day 21) / T/Cweight (%) / TGI (%) (Day 21): Day 21; for Tumor volume (Day 21) / Tumor weight (Day 21): Day 21, Mean ± SEM
# Experimental: Experimental purpose: To study the in vivo pharmacodynamics of the test compound in the BALB/c nude mouse model with subcutaneous xenograft tumor of human […] NCI-H1703 cells.
# Experimental animals: Experimental animals: female BALB/c nude mice, 6 to 8 weeks of age, weighing 18 to 22 grams; supplier: Shanghai Sippr-BK Lab.Animal Co.Ltd.
# Human non-small cell lung cancer NCI-H1703 cells were cultured in vitro in RPMI1640 medium with 10% fetal bovine serum, 100 U/mL penicillin, and 100 μg/mL streptomycin, and cultured at 37° C. in a 5% CO2 incubator. Conventional digestion with trypsin-EDTA was performed twice a week for passaging. When the cell saturation was 80% to 90% and the number of cells reached the requirement, and the cells were collected, counted, and seeded.
# 0.2 mL (5×10^6) NCI-H1703 cells (added with Matrigel, volume ratio of 1:1) were subcutaneously inoculated on the right back of each mouse, and the administration in groups began when the average tumor volume reached about 130 mm^3.
# The compound of formula (I) was prepared into 3 mg/mL, 6 mg/mL, and 9 mg/mL suspension solutions with 98.5% water+0.5% HPMC+1% Tween 80.
# Tumor diameters were measured with a vernier caliper twice a week. The formula for calculating tumor volume is: V=0.5a×b^2, wherein a and b represent the long and short diameters of the tumor, respectively. The relative tumor volume (RTV) was calculated based on the results of tumor measurement. The calculation formula is RTV=Vt/V0, wherein V0 is the tumor volume measured at the time of group administration (i.e., day 0), and Vt is the tumor volume at one measurement. Data of the same day was taken for TRTV and CRTV.
# The tumor inhibitory effect of the compound was evaluated by TGI (%, reflecting the tumor growth inhibition rate) or relative tumor proliferation rate T/C (%):
# T/C (%)=TRTV/CRTV×100%, TRTV represents the average RTV of the treatment group, and CRTV represents the average RTV of the negative control group.
# TGI (%)=[1−(average tumor volume at the end of administration in a certain treatment group−average tumor volume at the beginning of administration in this treatment group)/(average tumor volume at the end of treatment in the vehicle control group−average tumor volume at the beginning of treatment in the vehicle control group)]×100%.
# After the experiment, the tumor weight (TW) was detected and T/Cweight (%) was calculated. The calculation formula is: T/Cweight (%)=TWtreatment/TWvehicle×100%. TWtreatment and TWvehicle represent the tumor weights of the administration group and vehicle control group, respectively.
# Statistical analysis was performed using SPSS software based on RTV data at the end of the experiment. […] T-test was used to analyze the comparison between two groups, and one-way ANOVA was used to analyze the comparisons between three or more groups. If the variance was homogeneous (F value had no significant difference), Tukey's method is used for analysis; if the variance was not homogeneous (F value had significant difference), and the Games-Howell method was used for testing. p<0.05 was considered a significant difference.
# [2] = Solid-state stability test of crystal form B (XRPD and HPLC purity); format: physicochemical
# Experimental: Based on the “Guideline for Stability Testing of Pharmaceutical Ingredients and Formulations” (Chinese Pharmacopoeia 2020 Edition, General Rule 9001), in order to evaluate the solid-state stability of the crystal form B of the compound of formula (II-1), the solid-state stability of the crystal form B was investigated in terms of the influencing factors (high temperature, high humidity, and light) and the conditions of 60° C./75% RH and 40° C./75% RH. The crystal form B was placed at high temperature (60° C., open) and high humidity (25° C./92.5° RH, open) for 10 days respectively, and then placed open under visible and UV light (samples of the shaded control group were placed at the same time and wrapped in tin foil) according to the ICH conditions (total illuminance up to 1,200,000 Lux hrs in visible and 200 W hrs/m^2 in UV), for 1, 2, and 3 months at 60° C./75% RH (open), and for 1, 2, and 3 months at 40° C./75% RH (open).
# About 10 mg of this crystal form was accurately weighed and placed in a dry and clean glass vial, spread into a thin layer, and left open under the test conditions of the influence factors and the accelerated conditions. Samples placed under light conditions (visible light 1200000 Lux hrs, UV 200 W hrs/m^2) were in a clear glass vial with full exposure, and samples for XRPD test were placed separately.
# After the sample was taken out at the time point, it was covered, sealed with a sealing film, and stored in a −20° C. refrigerator. When preparing the sample, the sample was taken out of the refrigerator and warmed to room temperature, and dissolved with 25 mL of diluent (acetonitrile/water, 1:1, v/v) to obtain a solution with a concentration of approximately 0.5 mg/mL. The solution was analyzed using the liquid chromatography, and the results of the test were compared with the initial test results on day 0.
# Preparation of standard solution on day 0: About 12.5 mg of this crystal form was weighed and placed in a 25 mL volumetric flask, dissolved with […], and diluted to the mark.
# At the same time, HPLC tests were performed on all stability samples.
# [3] = Hygroscopicity study by dynamic vapor sorption (DVS); format: physicochemical; details: 25° C. and 80% RH
# Experimental: Instrument model: SMS DVS intrinsic dynamic moisture sorption analyzer
# Test conditions: a sample (about 10 mg) is taken and placed in the DVS sample tray for testing.
# The detailed DVS parameters are as follows:
# Equilibrium: dm/dt=0.01%/min
# RH (%) test increment: 5% RH
# RH (%) test increment range: 0% to 95% to 0%
# The evaluation and classifications of hygroscopicity are shown as follows:
# Sufficient moisture is absorbed to produce a fluid: Deliquescence; ΔW %≥15%: High hygroscopicity; 15%>ΔW %≥2%: Hygroscopicity; 2%>ΔW %≥0.2%: Slight hygroscopicity; ΔW %<0.2%: No hygroscopicity or almost no hygroscopicity: ΔW % indicates hygroscopic weight gain of the sample at 25±1° C. and 80±2% RH.
# The crystal form B of the compound of formula (II-1) (about 10 mg) was taken and placed in the DVS sample tray for testing.
# [4] = Pharmacokinetic evaluation in rat plasma after oral administration; format: in vivo; details: SD male rats, 30 mg/kg
# Experimental: The test compound was mixed with 0.5% CMC-Na+0.2% (V:V) Tween80 aqueous solution, vortexed, and sonicated to prepare a 3 mg/mL homogeneous suspension. SD male rats were selected, and orally administered with the candidate compound solution at a dose of 30 mg/kg. Whole blood was collected for a certain period of time and prepared into plasma. The drug concentration was analyzed by the LC-MS/MS method, and the pharmacokinetic parameters were calculated using Phoenix WinNonlin software (Pharsight, USA).
# Cmax: highest plasma drug concentration after administration; Tmax: time required to reach the peak concentration after administration; T1/2: time required for the plasma drug concentration to decrease by half; Tlast: time at the last detection point; AUC0-last: area under the drug-time curve, which refers to the area enclosed by the plasma drug concentration curve and the time axis.
# Human DNA-PK = biological target: T1, Human DNA-PK (Homo sapiens, UniProt P78527); assay: DNA-dependent protein kinase (DNA-PK) inhibitory activity screening assay (Eurofins, HTRF); format: biochemical; details: ATP: 10 μM, 50 nM GST-cMyc-p53
# T1 construct: purchased Eurofins (Eurofins Pharma Discovery Service; outsourced assay)
# Experimental: This experiment was tested in the Eurofins
# Human DNA-PK; Mg/ATP; GST-cMyc-p53; EDTA; Ser15 antibody; ATP: 10 μM.
# DNA-PK(h) was incubated in assay buffer containing 50 nM GST-cMyc-p53 and Mg/ATP (according to the required concentration). The reaction was initiated by adding the Mg/ATP mixture. After incubation at room temperature for 30 minutes, the reaction was stopped by adding a stop solution containing EDTA. Finally, detection buffer (containing labeled anti-GST monoclonal antibody and europium-labeled anti-phospho Ser15 antibody against phosphorylated p53) was added. The plate was then read in time-resolved fluorescence mode, and the homogeneous time-resolved fluorescence (HTRF) signal was determined according to the formula HTRF=10000×(Em665 nm/Em620 nm).
structure (smiles),measurement,setting,value
Cc1cc2ncnn2cc1Nc1ncc2c(n1)n(N1CC3CCC(C1)O3)c(=O)n2C [Compound of formula (I)],Tumor volume (Day 0),[1]; 30 mg/kg,131 ± 10 mm^3
same,RTV (Day 21),[1]; 30 mg/kg,7.57 ± 0.53
same,T/C (%) (Day 21),[1]; 30 mg/kg,79.3%
same,T/Cweight (%),[1]; 30 mg/kg,79.6%
same,TGI (%) (Day 21),[1]; 30 mg/kg,20.6%
same,Tumor volume (Day 21),[1]; 30 mg/kg,979 ± 86 mm^3
same,Tumor weight (Day 21),[1]; 30 mg/kg,1.031 ± 0.095 g
same,Tumor volume (Day 0),[1]; 60 mg/kg,131 ± 10 mm^3
same,RTV (Day 21),[1]; 60 mg/kg,3.31 ± 0.51
same,T/C (%) (Day 21),[1]; 60 mg/kg,34.7%
same,T/Cweight (%),[1]; 60 mg/kg,36.0%
same,TGI (%) (Day 21),[1]; 60 mg/kg,72.3%
same,Tumor volume (Day 21),[1]; 60 mg/kg,427 ± 64 mm^3
same,Tumor weight (Day 21),[1]; 60 mg/kg,0.467 ± 0.078 g
same,Tumor volume (Day 0),[1]; 90 mg/kg,130 ± 10 mm^3
same,RTV (Day 21),[1]; 90 mg/kg,2.64 ± 0.45
same,T/C (%) (Day 21),[1]; 90 mg/kg,27.7%
same,T/Cweight (%),[1]; 90 mg/kg,29.2%
same,TGI (%) (Day 21),[1]; 90 mg/kg,79.4%
same,Tumor volume (Day 21),[1]; 90 mg/kg,351 ± 64 mm^3
same,Tumor weight (Day 21),[1]; 90 mg/kg,0.379 ± 0.069 g
Cc1cc2ncnn2cc1Nc1ncc2c(n1)n(N1CC3CCC(C1)O3)c(=O)n2C [Crystal form B of the compound of formula (II-1)],Purity (area %),[2]; 0 days (initial),99.70 area %
same,Purity (area %),"[2]; 40° C., relative humidity of 75%, open, one month",99.77 area %
same,Purity (area %),"[2]; 40° C., relative humidity of 75%, open, three months",99.72 area %
same,Purity (area %),"[2]; 40° C., relative humidity of 75%, open, two months",99.76 area %
same,Purity (area %),"[2]; 60° C., relative humidity of 75%, open, one month",99.76 area %
same,Purity (area %),"[2]; 60° C., relative humidity of 75%, open, three months",99.73 area %
same,Purity (area %),"[2]; 60° C., relative humidity of 75%, open, two months",99.73 area %
same,Purity (area %),"[2]; High humidity (25° C., relative humidity of 92.5%, open), 10 days",99.75 area %
same,Purity (area %),"[2]; High temperature (60° C., open), 10 days",99.71 area %
same,Purity (area %),"[2]; Shaded control group, wrapped with tin foil, placed with visible light + UV",99.75 area %
same,Purity (area %),"[2]; Visible light + UV (ICH conditions), 1,200,000 Lux·hrs, 200 W·hrs/m^2",99.77 area %
same,Hygroscopicity classification,[3],slightly hygroscopic
same,T1/2,[4],4.07 h
same,Tmax,[4],1.33 h
Cc1cc2ncnn2cc1Nc1ncc2c(n1)n(N1CC3CCC(C1)O3)c(=O)n2C [Crystal form K of the compound of formula (VIII-1)],AUC0-last,[4],127.313 µM·h
same,Cmax,[4],21.7 µM
same,T1/2,[4],2.42 h
same,Tlast,[4],32.0 h
same,Tmax,[4],1.50 h
Cc1cc2ncnn2cc1Nc1ncc2c(n1)n(N1CC3CCC(C1)O3)c(=O)n2C,IC50,Human DNA-PK,0.6 nM
same,AUC(0-t),"[4]; male, SD, rat, po",87.4 µM·h
same,Cmax,"[4]; male, SD, rat, po",11.1 µM
Cc1cc2ncnn2cc1Nc1ncc2c(n1)n(N1CC3CCC(C1)O3)c(=O)n2C [Crystal form A of the compound of formula (I)],AUC0-last,[4],83.483 µM·h
same,Cmax,[4],14.6 µM
same,T1/2,[4],1.59 h
same,Tmax,[4],0.67 h
